Reference: patent US20150250782A1, “Methods and Compositions for Hypotensive Resuscitation” (Pharmazz, Inc., priority 2012, published 2015)
Blank lines part the entries; values can stand above or below the molecule they belong to.

Legend:
[1] = tested on: α2 adrenergic receptors; assay: Centhaquin resuscitation with and without α2 adrenergic antagonists: arterial blood hematocrit, pH, gases, electrolytes, lactate; type: in vivo, rat; settings: hemorrhaged rats
[2] = tested on: urethane anesthetized rats; assay: Cardiovascular effects in urethane anesthetized rats, centhaquin vs centhaquin citrate; type: in vivo, rat; settings: 0.05, 0.15, 0.45 mg/kg; 60 minute period; mean blood pressure, pulse pressure, heart rate, cardiac output, stroke volume, stroke work
Procedure: In these plots, centhaquin is tested as the free base in amounts of 0.05, 0.15, and 0.45 mg/kg. Similarly, centhaquin citrate dihydrate is tested in amounts of 0.05, 0.15, and 0.45 mg/kg. These amounts of centhaquin citrate are equivalent to 0.030, 0.089, and 0.267 mg/kg of centhaquin as the free base.

[3] = tested on: rats in endotoxic shock; assay: Endotoxic shock induced by E. coli LPS in rats; type: in vivo; settings: 0.05 mg/kg after LPS 30 mg/kg iv; one rat, sacrificed at the end of experiment; vehicle rat died after 270 min
Procedure: FIG. 14 illustrates the efficiency of a low dose of centhaquin citrate in the treatment of septic shock. In the tests summarized in FIG. 14, anaesthetized rats were immobilized on a surgical board and an incision was made above the femoral vein and artery. The vessels were cleaned and isolated. Heart rate and mean arterial pressure were measured by cannulating left femoral artery with pressure transducer SPR-320 (Millar Instruments), connected to a ML221 bridge amplifier (AD Instruments) through AEC-10C connector and the signals were acquired (1000 S^−) using PowerLab 16/30. Left femoral veins were secured for drug administration using PE 50 tubing (Clay Adams, Parsipanny, N.J.). Right femoral artery was cannulated for blood drawings using PE 50 tubing (Clay Adams, Parsipanny, N.J.). After completion of the surgery, animals were maintained in a steady state for 30 minutes before administration of Lipopolysaccharide (LPS). Endotoxic shock was induced by intravenous injection of E. coli LPS O111:B4 (Sigma Chemical, St. Louis, Mo.) dissolved to a concentration of 10 mg in 0.1 ml of normal saline and a dose of 30 mg/kg was administered. Resuscitation (R) was performed either with vehicle (saline) or with centhaquin citrate (0.05 mg/kg). The rat treated with vehicle has lower blood pressure compared to the rat treated with centhaquin. […]

[4] = tested on: hemorrhaged rats; settings: Gill, Pelit et al. 2011; cited from earlier work

SMILES: CCC1(c2cnc[nH]2)Cc2ccccc2C1 [atipamezole, reference compound]
- effect of the α2 adrenergic antagonist on the resuscitative effect of centhaquin [1]: completely blocked

- effect of the α2 adrenergic antagonist on the resuscitative effect of centhaquin [1]: completely blocked
SMILES: COC(=O)[C@@H]1[C@H]2C[C@H]3c4[nH]c5ccccc5c4CCN3C[C@@H]2CC[C@@H]1O [yohimbine, reference compound]

SMILES: Cc1cccc(N2CCN(CCc3ccc4ccccc4n3)CC2)c1.O=C(O)CC(O)(CC(=O)O)C(=O)O [centhaquin citrate]
- cardiovascular effects compared to centhaquin free base at same mg/kg dose [2]: substantially outperformed centhaquin free base
- survival [3]: 360 min

SMILES: N=C(N)NCCCCN [Agmatine]
- resuscitative effect [4]: effective resuscitation agent
- resuscitative effect in presence of yohimbine [4]: completely blocked
